Drawing on patent publication US7012085B2, “1,3 disubstituted pyrrolidines as α-2-adrenoceptor antagonists” (Novartis AG, priority 2000, dated 2006), this text covers inhibition of catalepsy and reduction of locomotion for 2 compounds.

The subject of experiment [1] is loxapine-induced catalepsy. As to the kind of experiment: loxapine-induced catalepsy in rats. It is filed as in vivo. To be noted: 0.3-3 mg/kg s.c. As to the method:
Kalkman H. O. et al., Br. J. Pharmacol. 124:1550-1556 (1998)] at doses of about 0.3 to about […] s.c.

Experiment [2] relates to amphetamine induced locomotion. As to the kind of experiment: amphetamine induced locomotion in rats. It is filed as in vivo. On the procedure: The compound or the solvent are administered at t=−30 min.

Each structure is given as a SMILES string.

Regarding `COc1ccccc1[C@H]1CCN(Cc2ccc3c(c2)OCCO3)C1` [(R)-1-(2,3,-dihydro-benzo-[1,4]dioxin-6-ylmethyl)-3-(2-methoxyphenyl)pyrrolidine], the inhibition of catalepsy entry in experiment [1] is listed as “long lasting, dose-dependent inhibition of catalepsy”. Further, the reduction of locomotion entry in experiment [2] (rats, 1, 3 and 10 mg/kg s.c.) was “dose-dependently reduce locomotion”.
For `COc1ccccc1[C@H]1CCN(Cc2ccc(=O)n(C(C)C)c2)C1` [(R)-1-isopropyl-5-[3-(2-methoxyphenyl)pyrrolidin-1-ylmethyl]-1H-pyridin-2-one], in experiment [1], the inhibition of catalepsy entry is given as “long lasting, dose-dependent inhibition of catalepsy”. Moreover, the reduction of locomotion result in experiment [2] (rats, 0.1, 0.3 and 1 mg/kg s.c.) is “dose-dependently reduce locomotion”.
